Laboratory results published in patent US7999115B2, “Spiro antibiotic derivatives” (Actelion Pharmaceutical Ltd., priority 2006, dated 2011).
Converted amounts (≈) assume the structure as drawn.

Legend:
Assay type in all cases: cell-based
M. catarrhalis A894 = test: MIC by broth microdilution (NCCLS), M. catarrhalis A894; conditions: cation-adjusted Mueller-Hinton Broth, pH 7.2-7.3
Method: (§1) These assays have been performed following the description given in “Methods for dilution Antimicrobial Susceptibility Tests for Bacteria that Grow Aerobically, 4th ed.; Approved standard: NCCLS Document M7-A4; National Committee for Clinical Laboratory Standards Villanova, Pa., USA, 1997”. Minimal inhibitory concentrations (MICs; mg/l) were determined in cation-adjusted Mueller-Hinton Broth (BBL) by a microdilution method following NCCLS guidelines (National Committee for Clinical Laboratory Standards. Methods for Dilution Antimicrobial Susceptibility). The pH of the test medium was 7.2-7.3. All Example compounds were tested against several Gram positive and Gram negative bacteria.

S. pneumoniae 49619 = test: MIC by broth microdilution (NCCLS), S. pneumoniae 49619; conditions: cation-adjusted Mueller-Hinton Broth, pH 7.2-7.3
Method: as §1

S. aureus A798 = test: MIC by broth microdilution (NCCLS), S. aureus A798; conditions: cation-adjusted Mueller-Hinton Broth, pH 7.2-7.3; for MIC: Staphylococcus aureus, A798, second table
Method: as §1

Row | MIC S. aureus A798 (S. aureus A798; second table) | Molecule | also measured
1 | ≦0.031 mg/l | COc1ccc2nccc(/C=C/C3CCC4(CC3)CN(c3ccc5c(c3)NC(=O)CS5)C(=O)O4)c2c1 (mixture of isomers) [Example 18, cis/trans-6-{8-[(E)-2-(6-methoxy-quinolin-4-yl)-vinyl]-2-oxo-1-oxa-3-aza-spiro[4.5]dec-3-yl}-4H-benzo[1,4]thiazin-3-one] | MIC M. catarrhalis A894 (M. catarrhalis A894): ≦0.031 mg/l; MIC S. pneumoniae 49619 (S. pneumoniae 49619): 0.125 µg/mL; MIC S. aureus A798 (S. aureus A798): ≦0.031 mg/l
2 | 2 µg/mL | COc1ccc2nccc(/C=C/C3CCC4(CC3)CN(c3ccc5c(c3)OCCO5)C(=O)O4)c2c1 (mixture of isomers) [Example 17, cis/trans-3-(2,3-dihydro-benzo[1,4]dioxin-6-yl)-8-[(E)-2-(6-methoxy-quinolin-4-yl)-vinyl]-1-oxa-3-aza-spiro[4.5]decan-2-one] | –
3 | ≦0.031 mg/l | COc1ccc2nccc(CCC3(O)CCC4(CC3)CN(c3ccc5c(c3)NC(=O)CO5)C(=O)O4)c2n1 (stereo not drawn) [Example 14, cis or trans-6-{8-hydroxy-8-[2-(6-methoxy-[1,5]naphthyridin-4-yl)-ethyl]-2-oxo-1-oxa-3-aza-spiro[4.5]dec-3-yl}-4H-benzo[1,4]oxazin-3-one] | –
4 | 0.125 µg/mL (≈ 0.254 µM) | COc1ccc2nccc(CCC3(O)CCC4(CC3)CN(c3ccc5c(c3)OCCO5)C(=O)O4)c2n1 (stereo not drawn) [Example 10, cis or trans-3-(2,3-dihydro-benzo[1,4]dioxin-6-yl)-8-hydroxy-8-[2-(6-methoxy-[1,5]naphthyridin-4-yl)-ethyl]-1-oxa-3-aza-spiro[4.5]decan-2-one] | –
5 | ≦0.031 mg/l | COc1ccc2nccc(CCC3(O)CCC4(CC3)CN(c3ccc5c(c3)NC(=O)CS5)C(=O)O4)c2n1 (stereo not drawn) [Example 12, cis or trans-6-{8-hydroxy-8-[2-(6-methoxy-[1,5]naphthyridin-4-yl)-ethyl]-2-oxo-1-oxa-3-aza-spiro[4.5]dec-3-yl}-4H-benzo[1,4]thiazin-3-one] | –
6 | ≦0.031 mg/l | COc1ccc2nccc(NC(=O)C3CCC4(CC3)CN(c3ccc5c(c3)OCCO5)C(=O)O4)c2n1 (mixture of isomers) [Example 9, cis/trans-3-(2,3-dihydro-benzo[1,4]dioxin-6-yl)-2-oxo-1-oxa-3-aza-spiro[4.5]decane-8-carboxylic acid (6-methoxy-[1,5]naphthyridin-4-yl)-amide] | –
7 | ≦0.031 mg/l | COc1ccc2nccc(CCC3(O)CCC4(CC3)CN(c3ccc5c(c3)NC(=O)CS5)C(=O)O4)c2n1 (stereo not drawn) [Example 13, cis or trans-6-{8-hydroxy-8-[2-(6-methoxy-[1,5]naphthyridin-4-yl)-ethyl]-2-oxo-1-oxa-3-aza-spiro[4.5]dec-3-yl}-4H-benzo[1,4]thiazin-3-one] | –
8 | 0.25 µg/mL (≈ 0.509 µM) | COc1ccc2nccc(CCC3(O)CCC4(CC3)CN(c3ccc5c(c3)OCCO5)C(=O)O4)c2n1 (stereo not drawn) [Example 11, cis or trans-3-(2,3-dihydro-benzo[1,4]dioxin-6-yl)-8-hydroxy-8-[2-(6-methoxy-[1,5]naphthyridin-4-yl)-ethyl]-1-oxa-3-aza-spiro[4.5]decan-2-one] | –
9 | ≦0.031 mg/l | COc1ccc2nccc(CCC3CCC4(CC3)CN(c3ccc5c(c3)NC(=O)CO5)C(=O)O4)c2n1 (mixture of isomers) [Example 16, cis/trans-6-{8-[2-(6-methoxy-[1,5]naphthyridin-4-yl)-ethyl]-2-oxo-1-oxa-3-aza-spiro[4.5]dec-3-yl}-4H-benzo[1,4]oxazin-3-one] | –
10 | 0.125 µg/mL (≈ 0.262 µM) | COc1ccc2ncnc(OC[C@H]3CC[C@@]4(CC3)CN(c3ccc5c(c3)OCCO5)C(=O)O4)c2c1 [Example 19, cis-3-(2,3-dihydro-benzo[1,4]dioxin-6-yl)-8-(6-methoxy-quinazolin-4-yloxymethyl)-1-oxa-3-aza-spiro[4.5]decan-2-one] | MIC M. catarrhalis A894 (M. catarrhalis A894): 0.5 µg/mL (≈ 1.05 µM); MIC S. pneumoniae 49619 (S. pneumoniae 49619): 0.25 µg/mL (≈ 0.524 µM); MIC S. aureus A798 (S. aureus A798): 0.125 µg/mL (≈ 0.262 µM)
11 | ≦0.031 mg/l | COc1ccc2nccc(CCC3(O)CCC4(CC3)CN(c3ccc5c(c3)NC(=O)CO5)C(=O)O4)c2n1 (stereo not drawn) [Example 15, cis or trans-6-{8-hydroxy-8-[2-(6-methoxy-[1,5]naphthyridin-4-yl)-ethyl]-2-oxo-1-oxa-3-aza-spiro[4.5]dec-3-yl}-4H-benzo[1,4]oxazin-3-one] | –

Second part, the molecule before the results:

Row | Molecule | MIC S. aureus A798 (S. aureus A798; second table) | also measured
12 | C=CC[C@@H]1CN(C[C@H](O)c2ccnc3ccc(OC)cc23)CC[C@]12CN(c1ccc3c(c1)OCCO3)C(=O)O2 (racemic) [Example 6, (5RS, 6RS)-6-allyl-3-(2,3-dihydro-benzo[1,4]dioxin-6-yl)-8-[(2RS)-2-hydroxy-2-(6-methoxy-quinolin-4-yl)-ethyl]-1-oxa-3,8-diaza-spiro[4.5]decan-2-one] | – | MIC (S. aureus A798): 1 µg/mL (≈ 1.88 µM)
13 | COc1ccc2nccc(OCC3CCC4(CC3)CN(c3ccc5c(c3)OCCO5)C(=O)O4)c2n1 (stereo not drawn) [Example 3, cis-3-(2,3-dihydro-benzo[1,4]dioxin-6-yl)-8-(6-methoxy-[1,5]naphthyridin-4-yloxymethyl)-1-oxa-3-aza-spiro[4.5]decan-2-one] | 2 µg/mL (≈ 4.19 µM) | –
14 | COc1ccc2nccc([C@@H](O)CN3CC[C@]4(CN(c5ccc6c(c5)OCCO6)C(=O)O4)[C@H](CCO)C3)c2c1 (racemic) [Example 8, (5RS, 6RS)-3-(2,3-dihydro-benzo[1,4]dioxin-6-yl)-6-(2-hydroxy-ethyl)-8-[(2RS)-2-hydroxy-2-(6-methoxy-quinolin-4-yl)-ethyl]-1-oxa-3,8-diaza-spiro[4.5]decan-2-one] | – | MIC (S. aureus A798): 1 µg/mL (≈ 1.87 µM)
15 | COc1ccc2nccc(OCC3CCC4(CC3)CN(c3ccc5c(c3)OCCO5)C(=O)O4)c2c1 (stereo not drawn) [Example 2, cis-3-(2,3-dihydro-benzo[1,4]dioxin-6-yl)-8-(6-methoxy-quinolin-4-yloxymethyl)-1-oxa-3-aza-spiro[4.5]decan-2-one] | 0.25 µg/mL (≈ 0.525 µM) | –
16 | (5R,6R,8S)-3-(2,3-dihydro-benzo[1,4]dioxin-6-yl)-8-[(2R)-2-hydroxy-2-(6-methoxy-[1,5]naphthyridin-4-yl)-ethyl]-6-hydroxymethyl-1,7-dioxa-3-aza-spiro[4.5]decan-2-one and (5R,6R,8S)-3-(2,3-dihydro-benzo[1,4]dioxin-6-yl)-8-[(2S)-2-hydroxy-2-(6-methoxy-[1,5]naphthyridin-4-yl)-ethyl]-6-hydroxymethyl-1,7-dioxa-3-aza-spiro[4.5]decan-2-one [Example 1] | 0.5 µg/mL | –
17 | COc1ccc2nccc(C(O)CN3CCC4(CC3)CN(c3ccc5c(c3)NC(=O)CS5)C(=O)O4)c2c1 (racemic) [Example 5, 6-{8-[(2RS)-2-hydroxy-2-(6-methoxy-quinolin-4-yl)-ethyl]-2-oxo-1-oxa-3,8-diaza-spiro[4.5]dec-3-yl}-4H-benzo[1,4]thiazin-3-one] | – | MIC (S. aureus A798): ≤ 0.031 µg/mL
18 | COc1ccc2nccc(C(O)CN3CCC4(CC3)CN(c3ccc5c(c3)OCCO5)C(=O)O4)c2c1 (racemic) [Example 4, 3-(2,3-dihydro-benzo[1,4]dioxin-6-yl)-8-[(2RS)-2-hydroxy-2-(6-methoxy-quinolin-4-yl)-ethyl]-1-oxa-3,8-diaza-spiro[4.5]decan-2-one] | – | MIC (S. aureus A798): ≤ 0.031 µg/mL
19 | COC(=O)C[C@@H]1CN(C[C@H](O)c2ccnc3ccc(OC)cc23)CC[C@]12CN(c1ccc3c(c1)OCCO3)C(=O)O2 (racemic) [Example 7, (5RS,6RS)-{3-(2,3-dihydro-benzo[1,4]dioxin-6-yl)-8-[(2RS)-2-hydroxy-2-(6-methoxy-quinolin-4-yl)-ethyl]-2-oxo-1-oxa-3,8-diaza-spiro[4.5]dec-6-yl}-acetic acid methyl ester] | – | MIC (S. aureus A798): 2 µg/mL (≈ 3.55 µM)
